Test results reported in article PMC12040169 (PLOS Biology, 2025).

Test: in vitro
Details: human, hela cells, % viability

Row | SMILES | viability at 28.5 h, 10 µM [%]
1 | Cc1ccc(CNC(=O)CCC(=O)O)cc1 [CBK058951] | 120
2 | O=S(=O)(Cc1ccc(Cl)cc1Cl)N1CCOCC1 [CBK058967] | 78.1
3 | CCC(NC(=O)c1csc2c1CCCC2)c1ccccc1 (stereo not shown) [CBK059006] | 108
4 | O=C(NC1CCCCCC1)c1ccc(COCC(F)(F)C(F)F)cc1 [CBK059012] | 114
5 | Cc1cc(Cl)ccc1OCCCC(=O)N1CCc2ccccc21 [CBK059016] | 97.8
6 | CN(C)CCNC1CS(=O)(=O)CC1O (stereo not shown) [CBK059025] | 84.8
7 | CN(C)CCN(C)S(=O)(=O)c1ccc(C(C)(C)C)cc1 [CBK059035T] | 94.7
8 | CN1CCC(N(C)S(=O)(=O)c2ccc(C(C)(C)C)cc2)C1 (stereo not shown) [CBK059036T] | 98.5
9 | O=S(=O)(c1ccc(F)c(Cl)c1)n1ccc2c(N3CCNCC3)nccc21 [CBK059059C] | 90.7
10 | O=S(=O)(c1c(Cl)cccc1Cl)n1ccc2c(N3CCNCC3)nccc21 [CBK059060C] | 91.4
11 | O=S(=O)(c1ccc(F)cc1F)n1ccc2c(N3CCNCC3)nccc21 [CBK059061C] | 89.7
12 | COc1ccc(OC)c(S(=O)(=O)n2ccc3c(N4CCNCC4)nccc32)c1 [CBK059067C] | 101
13 | Cc1ccc([N+](=O)[O-])cc1S(=O)(=O)n1ccc2c(N3CCNCC3)nccc21 [CBK059068C] | 96.5
14 | Cc1cc(F)c(S(=O)(=O)NCCN2CCOCC2)cc1NC(=O)c1ccc(Br)o1 [CBK059091C] | 89.7
15 | O=C(O)CC1SC(Nc2cc(C(F)(F)F)cc(C(F)(F)F)c2)=NC1=O (stereo not shown) [CBK059095] | 89.8
16 | O=C(O)CC1SC(Nc2ccccc2F)=NC1=O (stereo not shown) [CBK059096] | 94.9
17 | CCNC(=S)N1CC[C@@H]2N(C)CC[C@]2(c2ccc(OC)c(OC)c2)CC1 [CBK059113T] | 88.5
18 | COc1ccc2c(c1)C(C)CC(C)(C)N2C(=O)CSc1nnc(-c2ccco2)n1C (stereo not shown) [CBK059169] | 102
19 | C=CCn1c(SCC(=O)N2c3ccccc3C(C)(c3ccccc3)CC2(C)C)nnc1-c1ccncc1 (stereo not shown) [CBK059171] | 83.3
20 | CCCn1c(SCC(=O)N2c3ccc(F)cc3CCC2C)nnc1-c1cccnc1 (stereo not shown) [CBK059187] | 94
21 | CS(=O)(=O)Nc1ccc(N2CCNCC2)c2ccccc12 [CBK059355C] | 79.3
22 | O=C([C@@H]1Cc2c([nH]c3ccccc23)C2(CCN(Cc3ccccc3)C2)N1)N1CCOCC1 (stereo partly shown) [CBK059363T] | 97.3
23 | Cc1cc(F)c(S(N)(=O)=O)cc1NC(=O)c1ccc(CN2CCOCC2)o1 [CBK059376C] | 97.7
24 | CCS(=O)(=O)Nc1cc(N2CCNCC2)c2occc2c1 [CBK059429C] | 118
25 | CCc1cccc(CC)c1NC(=O)CC1SC(NCc2ccc(C)cc2)=NC1=O (stereo not shown) [CBK059431] | 118

Row | SMILES | viability at 28.5 h, 10 µM [%]
26 | O=C(Cc1ccc(Cl)cc1)N1CCc2c([nH]c3ccccc23)C12CCN(Cc1ccc(F)cc1)C2 (stereo not shown) [CBK059453] | 90.6
27 | CC(C)CC(=O)N1CCc2c([nH]c3ccccc23)C12CCN(Cc1ccccc1)C2 (stereo not shown) [CBK059459] | 81.6
28 | CS(=O)(=O)N1CCc2c([nH]c3ccccc23)C12CCN(Cc1ccccc1)C2 (stereo not shown) [CBK059460] | 102
29 | COc1cc(NC(=O)CC2SC(NC3CCCCC3)=NC2=O)c(OC)cc1Cl (stereo not shown) [CBK059497] | 96.2
30 | Cc1ccc(NC(=O)CC2SC(NC3CCCCC3)=NC2=O)c(C)c1 (stereo not shown) [CBK059500] | 87.9
31 | O=C(CC1SC(NC2CCCCC2)=NC1=O)Nc1cc(Cl)ccc1Cl (stereo not shown) [CBK059501] | 91
32 | C[C@@H]1[C@H]2C[C@@H](C[C@H]1NC1=NC(=O)C(CC(=O)O)S1)C2(C)C (stereo partly shown) [CBK059514] | 93.8
33 | COc1ccc(N(C)C(=O)c2ccc(Cn3nc(NC(=O)Cc4ccc5c(c4)OCO5)c4ccccc43)cc2)cc1 [CBK059530] | 103
34 | Cc1ccnc2c1C(=O)C1(CC2)CCN(C(=O)Nc2ccc(F)cc2F)CC1 [CBK059553T] | 91.3
35 | O=C(NC(c1ccc(Cl)cc1)c1cnccn1)C1CCN(C(=O)c2ccccc2)CC1 (stereo not shown) [CBK059634] | 109
36 | COc1ccccc1C(NC(=O)C1CCN(C(=O)c2cccc(Cl)c2)CC1)c1ccccn1 (stereo not shown) [CBK059637] | 90.3
37 | CC(C)OC(=O)N1CCC(C(=O)NC(c2ccccc2)c2ccc3ccccc3n2)CC1 (stereo not shown) [CBK059642] | 106
38 | COc1cc(OC)nc(C(NC(=O)C2CCN(C(=O)c3ccccc3)CC2)c2ccccc2)n1 (stereo not shown) [CBK059650] | 99.7
39 | COC(=O)N1CCC(C(=O)NC(c2ccccc2)c2nc(OC)cc(OC)n2)CC1 (stereo not shown) [CBK059651] | 90.6
40 | CC(C)S(=O)(=O)N1CCC(C(=O)NC(c2ccccc2)c2ccc3ccccc3n2)CC1 (stereo not shown) [CBK059676] | 94.1
41 | O=C(NC(c1ccc(Cl)cc1)c1cccnc1)C1CCN(C(=O)C2CC2)CC1 (stereo not shown) [CBK059686] | 90.4
42 | C=CCOC(=O)N1CCC(C(=O)NC(c2ccccn2)c2ccccc2C)CC1 (stereo not shown) [CBK059689] | 94
43 | CS(=O)(=O)N1CCC(C(=O)NC(c2ccc(F)cc2)c2ccccn2)CC1 (stereo not shown) [CBK059696] | 94.9
44 | Cc1ccccc1C(NC(=O)C1CCN(S(=O)(=O)C(C)C)CC1)c1ccccn1 (stereo not shown) [CBK059711] | 104
45 | Cc1ccccc1C(NC(=O)C1CCN(C(=O)c2ccccc2)CC1)c1ccccn1 (stereo not shown) [CBK059720] | 94.5
46 | Cc1ccccc1C(NC(=O)C1CCN(C(=O)N(C)c2ccccc2)CC1)c1ccccn1 (stereo not shown) [CBK059721] | 88.7
47 | COc1ccc(C(NC(=O)C2CCN(C(=O)OCc3ccccc3)CC2)c2ccccc2C)cn1 (stereo not shown) [CBK059726] | 91.4
48 | COc1ccc(C(NC(=O)C2CCN(S(C)(=O)=O)CC2)c2ccccc2C)cn1 (stereo not shown) [CBK059738] | 104
49 | O=C(NC(c1ccccc1)c1ccco1)C1CCN(C(=O)c2cccs2)CC1 (stereo not shown) [CBK059854] | 82.4
50 | COC(=O)N1CCC(C(=O)NC(c2ccccc2)c2ncccc2C)CC1 (stereo not shown) [CBK059885] | 92.6

Row | SMILES | viability at 28.5 h, 10 µM [%]
51 | O=C(NC(c1ccc(F)cc1)c1cnccn1)C1CCN(C(=O)c2ccco2)CC1 (stereo not shown) [CBK059956] | 94.3
52 | O=C(NC(c1ccc(F)cc1)c1cnccn1)C1CCN(S(=O)(=O)c2cccc(Cl)c2)CC1 (stereo not shown) [CBK060013] | 85.1
53 | CC(C)(C)C(=O)N1CCC(C(=O)NC(c2ccc3c(c2)OCO3)c2ccccn2)CC1 (stereo not shown) [CBK060074] | 110
54 | O=C(NC(c1ccc(Cl)cc1)c1ccsc1)C1CCN(S(=O)(=O)CC(F)(F)F)CC1 (stereo not shown) [CBK060088] | 89.1
55 | O=C(NC(c1ccccc1)c1ccccn1)C1CCN(C(=O)Oc2ccccc2)CC1 (stereo not shown) [CBK060105] | 96.9
56 | CC(=O)N1CCC(C(=O)N2CCC(C(=O)NC(c3ccccn3)c3cccs3)CC2)CC1 (stereo not shown) [CBK060118] | 95
57 | Cn1cnc(S(=O)(=O)N2CCC(C(=O)NC(c3ccccn3)c3cccs3)CC2)c1 (stereo not shown) [CBK060131] | 105
58 | Cc1ccc(C(=O)N2CCC(C(=O)NC(c3ccccc3)c3ccsc3)CC2)cc1 (stereo not shown) [CBK060154] | 109
59 | COCCOC(=O)N1CCC(C(=O)NC(c2ccccc2)c2ccsc2)CC1 (stereo not shown) [CBK060155] | 94.4
60 | COc1cc(OC)nc(C(NC(=O)C2CCN(C(=O)c3ccno3)CC2)c2ccc(Cl)cc2)n1 (stereo not shown) [CBK060169] | 115
61 | CN(C(=O)C1CCN(C(=O)c2ccoc2)CC1)C(c1ccc(F)cc1)c1ccccn1 (stereo not shown) [CBK060206] | 91.5
62 | Cc1ccccc1C(c1cnccn1)N(C)C(=O)C1CCN(C(=O)c2ccccc2)CC1 (stereo not shown) [CBK060208] | 94.4
63 | COc1cccc(C(c2ccccn2)N(C)C(=O)C2CCN(S(=O)(=O)c3c(C)noc3C)CC2)c1 (stereo not shown) [CBK060212] | 96.4
64 | Cc1ccc(S(=O)(=O)N2CCC(C(=O)NC(c3ccccc3C)c3ncccc3C)CC2)cc1 (stereo not shown) [CBK060249] | 94.3
65 | COc1ccc(C(c2ccccn2)N(C)C(=O)C2CCN(S(=O)(=O)C(C)C)CC2)cc1 (stereo not shown) [CBK060280] | 88.2
66 | COc1ccc(C(NC(=O)C2CCN(C(=O)NC(C)(C)C)CC2)c2ccccn2)cc1 (stereo not shown) [CBK060298] | 112
67 | O=C(NC(c1ccccc1)c1cccnc1)C1CCN(C(=O)NCCc2cccs2)CC1 (stereo not shown) [CBK060313] | 78.3
68 | O=C(NC(c1ccccc1)c1cccnc1)C1CCN(C(=O)NC2CCCCC2)CC1 (stereo not shown) [CBK060378] | 84
69 | Cc1ccccc1C(NC(=O)C1CCN(C(=O)NCc2ccccc2)CC1)c1ncccc1C (stereo not shown) [CBK060398] | 94.9
70 | O=C(NC(c1ccccc1)c1ccco1)C1CCN(C(=S)NCCc2ccccc2)CC1 (stereo not shown) [CBK060412] | 94.4
71 | CN(C(=O)C1CCN(C(=S)NCc2ccccc2)CC1)C(c1ccccc1)c1ccccn1 (stereo not shown) [CBK060476] | 91.7
72 | Cn1c(=O)n(CC(=O)N2CCC(C(=O)NC(c3ccccc3)c3ccccn3)CC2)c2ccccc21 (stereo not shown) [CBK060494] | 96
73 | Cc1cccnc1C(c1ccccc1)N(C)C(=O)C1CCN(C(=O)OCc2ccccc2)CC1 (stereo not shown) [CBK060522] | 93.9

Same assay, conditions: human, hela cells, % viability, bulk resorufin, single well

Row | SMILES | viability at 28.5 h, 10 µM [%]
74 | COc1ccccc1NC(=O)N1CCC2(CC1)OCc1cc(-c3ccccc3)ccc1O2 [CBK060599] | 109
75 | Cc1noc(C)c1NC(=O)N1CCC2(CC1)OCc1cc(F)ccc1O2 [CBK060721] | 97.8
76 | O=C(Nc1cccc(Cl)c1)N1CCC2(CC1)OCc1cc(F)ccc1O2 [CBK060722] | 87.5
77 | CCNC(=O)N1CCC2(CC1)OCc1cc(-c3ccc(Cl)cc3)ccc1O2 [CBK060737] | 90.1
78 | COc1ccc2c(c1)COC1(CCN(C(=O)NC3CCCCC3)CC1)O2 [CBK060755] | 111
79 | O=C(NCCc1cccs1)N1CCC2(CC1)OCc1cc(F)ccc1O2 [CBK060769] | 98.3
80 | CSc1cc(C)c2c(c1)COC1(CCN(C(=O)Nc3cccs3)CC1)O2 [CBK060795] | 90.6
81 | COc1ccc2c(c1)COC1(CCN(C(=O)Nc3cccs3)CC1)O2 [CBK060803] | 105
82 | CSc1cc(C)c2c(c1)COC1(CCN(C(=O)COCC(=O)O)CC1)O2 [CBK060839] | 94.1
